Assay results: ChEMBL document CHEMBL1201862, “PubChem BioAssay data set” (2004)
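Briefly, cells in 96-well plates were exposed to five compound concentrations for 48 h, and endpoints were estimated by linear interpolation. Here, GI50 denotes the concentration required for 50% inhibition of growth.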 Activity calls are given as the source filed them. Rule as the data show it: active = GI50 up to about 1.1 µM and inactive = higher.

What was measured:
Test in all cases: NCI anticancer screen, dose series, 48 h
CCRF-CEM = test system: CCRF-CEM
HCT-15 = test system: HCT-15
HOP-62 = test system: HOP-62
HOP-92 = test system: HOP-92
HT-29 = test system: HT-29
IGROV-1 = test system: IGROV-1
LOX IMVI = test system: LOX IMVI
M14 = test system: M14
NCI-H460 = test system: NCI-H460
NCI/ADR-RES = test system: NCI/ADR-RES
SF-295 = test system: SF-295
SK-MEL-5 = test system: SK-MEL-5
SNB-19 = test system: SNB-19
SW-620 = test system: SW-620
U-251 = test system: U-251
UACC-257 = test system: UACC-257
UACC-62 = test system: UACC-62
COLO 205 = test system: COLO 205
SF-268 = test system: SF-268
SK-OV-3 = test system: SK-OV-3

| Compound | GI50 (CCRF-CEM) | GI50 (HCT-15) | GI50 (HOP-62) | GI50 (HOP-92) | GI50 (HT-29) | GI50 (IGROV-1) | GI50 (LOX IMVI) | GI50 (M14) | GI50 (NCI-H460) | GI50 (NCI/ADR-RES) | GI50 (SF-295) | GI50 (SK-MEL-5) | GI50 (SNB-19) | GI50 (SW-620) | GI50 (U-251) | GI50 (UACC-257) | GI50 (UACC-62) | GI50 (COLO 205) | GI50 (SF-268) | GI50 (SK-OV-3) |
| --- | --- | --- | --- | --- | --- | --- | --- | --- | --- | --- | --- | --- | --- | --- | --- | --- | --- | --- | --- | --- |
| O=c1ccc2ccc(CBr)cc2o1 | 1.78 µM (inactive) | 1.87 µM | 17 µM (inactive) | 1.68 µM (inactive) | 2.48 µM (inactive) | 3.57 µM (inactive) | 1.5 µM (inactive) | 2.8 µM (inactive) | 10.8 µM (inactive) | 1.69 µM (inactive) | 15.3 µM (inactive) | 2.79 µM (inactive) | 12.4 µM (inactive) | 1.72 µM (inactive) | 1.81 µM (inactive) | 11.7 µM (inactive) | 10.8 µM (inactive) | – | – | – |
| COc1cc(C2S/C(=C/c3ccccc3)C(=O)N2c2ccccc2Cl)cc(OC)c1OC (centres undefined) | – | 27.5 µM | 31.3 µM (inactive) | 14.3 µM (inactive) | 19.1 µM (inactive) | – | 18.7 µM (inactive) | 20.2 µM (inactive) | – | 25.6 µM (inactive) | 28.9 µM (inactive) | 20.7 µM (inactive) | 35.5 µM (inactive) | – | 22.1 µM (inactive) | 45.5 µM (inactive) | 20 µM (inactive) | 33.3 µM (inactive) | 30.3 µM (inactive) | 29.6 µM (inactive) |
| COc1ccc2nc(-n3c(/C=C/c4ccccc4O)nc4ccccc4c3=O)sc2c1 | 16.1 µM (inactive) | 60.1 µM | > 100 µM (inactive) | 60.8 µM (inactive) | 50.2 µM (inactive) | 39.6 µM (inactive) | 69.5 µM (inactive) | 33.6 µM (inactive) | > 100 µM (inactive) | 55.3 µM (inactive) | 80.5 µM (inactive) | 19.7 µM (inactive) | 35.5 µM (inactive) | > 100 µM (inactive) | > 100 µM (inactive) | > 100 µM (inactive) | 61.5 µM (inactive) | > 100 µM (inactive) | > 100 µM (inactive) | > 100 µM (inactive) |
| C[C@H](N[C@H]1CCC[C@]1(O)C#Cc1ccc2c(c1)OCO2)c1ccccc1 | > 25 µM (inactive) | > 25 µM | > 25 µM (inactive) | 11.9 µM (inactive) | > 25 µM (inactive) | 14.3 µM (inactive) | > 25 µM (inactive) | 14.2 µM (inactive) | 21.4 µM (inactive) | > 25 µM (inactive) | > 25 µM (inactive) | 22.6 µM (inactive) | > 25 µM (inactive) | – | 19.7 µM (inactive) | > 25 µM (inactive) | > 25 µM (inactive) | 9.25 µM (inactive) | > 25 µM (inactive) | > 25 µM (inactive) |
| Cc1ccc(S(=O)(=O)NNC(=O)Nc2ccc(Cl)cc2)cc1 | > 100 µM (inactive) | > 100 µM | > 100 µM (inactive) | > 100 µM (inactive) | > 100 µM (inactive) | > 100 µM (inactive) | – | > 100 µM (inactive) | > 100 µM (inactive) | > 100 µM (inactive) | > 100 µM (inactive) | 53 µM (inactive) | > 100 µM (inactive) | > 100 µM (inactive) | > 100 µM (inactive) | > 100 µM (inactive) | > 100 µM (inactive) | > 100 µM (inactive) | > 100 µM (inactive) | > 100 µM (inactive) |
| CC(=O)C(CN1CCCCC1)C(c1ccccc1)c1c(O)c2ccccc2oc1=O (centres undefined) | > 100 µM (inactive) | > 100 µM | > 100 µM (inactive) | 41 µM (inactive) | > 100 µM (inactive) | > 100 µM (inactive) | > 100 µM (inactive) | > 100 µM (inactive) | > 100 µM (inactive) | > 100 µM (inactive) | > 100 µM (inactive) | > 100 µM (inactive) | > 100 µM (inactive) | > 100 µM (inactive) | > 100 µM (inactive) | > 100 µM (inactive) | > 100 µM (inactive) | > 100 µM (inactive) | > 100 µM (inactive) | > 100 µM (inactive) |
| Cc1ccc(S(=O)(=O)OCCN(CCOS(=O)(=O)c2ccc(C)cc2)c2ccc(C=O)cc2)cc1 | 34.8 µM (inactive) | 30.1 µM | – | 26.1 µM (inactive) | 32.1 µM (inactive) | 36.1 µM (inactive) | 38.7 µM (inactive) | 32.4 µM (inactive) | 21.9 µM (inactive) | 36.2 µM (inactive) | 44.3 µM (inactive) | 32.9 µM (inactive) | 60.8 µM (inactive) | 29.6 µM (inactive) | 24.3 µM (inactive) | 24.8 µM (inactive) | 20 µM (inactive) | 28.1 µM (inactive) | 46.6 µM (inactive) | – |
